Test results reported in patent EP1954678B1, “NOVEL NK1 AND NK2 ANTAGONISTS” (Abbott Products GmbH, priority 2005, dated 2007).
Like-named read-outs stand apart in the source and are kept apart here.

Columns and labels:
NK2 receptors = target: T1, NK2 receptors (Cavia porcellus, UniProt Q64077); assay: NK-2-receptor-antagonistic effectiveness in vivo in anaesthetised guinea pigs (NKA test stimulus: late hypotension, bronchoconstriction, colonic pressure); parameters: from tissue; host or cells: whole anaesthetised guinea pig (in vivo); species or system Pirbright-White guinea pigs; conditions: for ED50: guinea pig; for oral activity as NK2 receptor antagonist: result in words, oral administration
T1 sequence (Q64077 1-402): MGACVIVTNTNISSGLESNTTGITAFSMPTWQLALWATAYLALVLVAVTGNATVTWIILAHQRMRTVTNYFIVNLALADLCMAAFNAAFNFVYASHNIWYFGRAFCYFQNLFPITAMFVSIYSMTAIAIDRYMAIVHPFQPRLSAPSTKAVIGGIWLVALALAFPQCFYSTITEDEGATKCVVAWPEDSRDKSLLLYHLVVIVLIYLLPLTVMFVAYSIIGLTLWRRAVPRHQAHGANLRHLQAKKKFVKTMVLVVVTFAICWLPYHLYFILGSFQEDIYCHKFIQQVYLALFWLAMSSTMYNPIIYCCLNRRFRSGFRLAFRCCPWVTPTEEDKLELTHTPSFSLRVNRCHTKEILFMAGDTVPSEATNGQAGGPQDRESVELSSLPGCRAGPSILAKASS
Excerpt: The NK-1- and NK-2-antagonistic activities of the test substances were investigated in anaesthetised guinea pigs in each case after intravenous (= i.v.) and oral (= p.o.) administration in vivo. With the present test model it is possible to detect both NK-2-antagonistic effects in three different organ systems (respiratory tracts, colon and circulation) and NK-1-antagonistic effects (rapid drop in blood pressure) in an animal simultaneously.
Pirbright-White guinea pigs of a body weight of 500-700 g were anaesthetised with ketamine/xylazine (67/13 mg/kg subcutaneously, initial dose, further doses administered as required). The animals were provided with an intravenous catheter in order to administer the substance and an intra-arterial catheter to measure the blood pressure. The animals were artificially ventilated via a tracheal cannula and the respiratory pressure was recorded by means of a pressure transducer. A balloon was introduced into the distal colon of the animals for manometric recording of colon motility by means of a pressure transducer. Blood pressure, heart rate, respiratory pressure and colonic pressure were measured continuously for each animal and plotted on a recorder and by means of a digital data-processing system. […] The second phase of delayed hypotension (= phase of maximum hypotension after 2-5 min.) on the other hand is mediated via NK-2 receptors, since they can be blocked by specific NK-2 receptor antagonists. […] Table 6: NK-1- and NK-2-receptor-antagonistic effective-ness of the test substances of Formula I on guinea pigs in vivo after intravenous administration
These ED50 values obtained from cumulative dose effect curves are plotted in table 6.
The antagonistic effects of the test substances were then determined as "area under the curve" ("AUC") over the investigation period after administration of the test substances (1 - 180 min after administration) and the ED50 values after oral administration obtained therefrom were plotted in table 7. Table 7: NK-1- and NK-2-receptor-antagonistic effective-ness of the test substances of Formula I on guinea pigs in vivo after oral administration

NK1 receptors = NK1 receptors (Cavia porcellus, UniProt P30547); assay: Functional NK1 antagonism on isolated guinea pig aorta ring preparations (Substance P induced relaxation); parameters: from tissue; host or cells: guinea pig aorta ring preparations; species or system Pirbright-White guinea pigs
Chain of NK1 receptors (P30547 whole entry): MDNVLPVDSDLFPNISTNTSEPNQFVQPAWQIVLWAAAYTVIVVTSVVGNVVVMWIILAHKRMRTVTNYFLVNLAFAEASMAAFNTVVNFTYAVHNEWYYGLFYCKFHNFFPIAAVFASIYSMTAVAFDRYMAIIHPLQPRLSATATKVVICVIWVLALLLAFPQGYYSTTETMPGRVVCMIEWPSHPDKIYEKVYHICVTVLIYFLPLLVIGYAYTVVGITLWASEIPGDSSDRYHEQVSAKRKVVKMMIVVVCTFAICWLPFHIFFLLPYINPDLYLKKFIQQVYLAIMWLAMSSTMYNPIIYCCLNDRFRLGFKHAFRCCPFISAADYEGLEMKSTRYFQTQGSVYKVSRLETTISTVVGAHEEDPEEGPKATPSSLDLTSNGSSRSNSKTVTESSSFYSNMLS
Experimental: In The Netherlands, the action antagonistic to NK1 receptors of the test substances was measured in vitro on isolated ring preparations, kept in an oxygenated nutrient solution, of the aortas of Pirbright-White guinea pigs.
In order to measure the contraction of the vessel muscles, the preparations were fixed to a hook, joined by a thread to a force measuring apparatus and the contractions were recorded in each case on a plotter. The aorta preparations were tonicised with phenylephrine. […] The relaxations before and after the administration of the test substance were quantified in percent. The effective concentration of the half maximum inhibition of the relaxation of the tone (= EC50) was calculated. The negative common logarithm of the EC50 value (= pEC50) was given as characteristic variable. The pEC50 value is a measurement of the functional effectiveness of the test substances on NK1 receptors.

[1] = target: T2, cloned human NK2 receptors (Homo sapiens, UniProt P21452); assay: Ca2+ measurements using FLIPR for NK2 activity in CHO cells; format: cell-based; conditions: NKA 10^-7 M as agonist; compound applied 7 min before; pA2 calculated from IC50
T2 construct: expressed in transfected cells
T2 sequence (P21452 1-398): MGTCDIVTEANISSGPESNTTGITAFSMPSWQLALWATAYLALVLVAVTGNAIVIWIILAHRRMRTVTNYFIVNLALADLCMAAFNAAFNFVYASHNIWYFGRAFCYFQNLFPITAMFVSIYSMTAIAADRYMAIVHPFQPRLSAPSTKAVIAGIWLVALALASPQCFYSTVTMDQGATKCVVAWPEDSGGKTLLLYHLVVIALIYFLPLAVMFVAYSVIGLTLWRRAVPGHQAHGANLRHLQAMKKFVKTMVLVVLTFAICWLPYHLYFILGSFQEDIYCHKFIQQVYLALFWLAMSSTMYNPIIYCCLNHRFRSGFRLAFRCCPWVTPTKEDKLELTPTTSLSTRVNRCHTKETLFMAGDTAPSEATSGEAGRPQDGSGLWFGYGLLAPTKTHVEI
Excerpt: The NK receptor is coupled to Gq.
All steps were done under sterile conditions. […] The results are summarized in table 5: Table 5: pA2 data for NK1 and NK2: […]

human NK1 receptors = target: T3, human NK1 receptors (Homo sapiens, UniProt P25103); assay: Binding of the test substances to NK1 receptors in vitro ([3H]-Substance P displacement, CHO cell membranes); conditions: [3H]-Substance P as ligand; membranes of CHO cells expressing the human NK1 receptor; Ki calculated from IC50; read-out: pKi (NK1) (converted)
T3 construct: expressed in transfected cells; host or cells: CHO cells (membrane preparation)
T3 sequence (P25103 whole entry): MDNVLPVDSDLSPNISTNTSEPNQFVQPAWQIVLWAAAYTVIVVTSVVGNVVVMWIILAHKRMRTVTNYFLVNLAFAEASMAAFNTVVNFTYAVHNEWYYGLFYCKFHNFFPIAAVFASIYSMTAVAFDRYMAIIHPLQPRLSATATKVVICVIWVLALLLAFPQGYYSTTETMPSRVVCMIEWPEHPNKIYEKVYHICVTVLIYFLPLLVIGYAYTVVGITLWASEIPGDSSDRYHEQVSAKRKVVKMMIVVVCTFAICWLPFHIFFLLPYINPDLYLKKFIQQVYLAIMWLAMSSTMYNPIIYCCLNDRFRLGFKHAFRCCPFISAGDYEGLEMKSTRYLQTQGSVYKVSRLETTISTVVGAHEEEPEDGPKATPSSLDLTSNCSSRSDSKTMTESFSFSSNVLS
Experimental: In The Netherlands, the affinity of the test substances to human NK1 receptors was measured in vitro.
The receptor binding studies were performed with [^3H]-Substance P as ligand. For the binding test, different samples of a membrane preparation of CHO cells (= egg cells of the Chinese hamster, Chinese hamster oocytes), which express the human NK1 receptor ("Accession Number" of the associated nucleic acid sequence = M74290; "Accession Number" of the associated protein sequence = P25103; cf. Takeda, Y.; Chou, K. B., Takeda, J.; Sachais, B.S. and Krause, J. E; Biochemical and Biophysical Research Communications, 179(3) (1991) 1232 - 1240), were incubated with a solution of the marked ligand, with the incubation mixtures containing no test substance or additions of different concentrations of test substance. Then, separation of bound and free ligands was performed in each of the samples with the aid of glass-fibre filtration. The fraction remaining in the filter was washed several times with buffer solution and then the radioactivity of the fraction remaining in the filter was measured using a beta scintillation counter.
For the compounds of Examples 1 to 14, that concentration which effects half maximum displacement of the bound ligand was determined as IC50 of the respective test substance. From this, the corresponding inhibition constant (Ki value) of the test substance was calculated, and was stated as the negative common logarithm of the Ki value (= pKi value). The pKi value is a measurement of the affinity of the test substances to human NK1 receptors.

[2] = iv, read-out: ED50 iv after 1 min (cumulative) NK2 (broncho-constriction)
[3] = iv, read-out: ED50 iv after 1 min (cumulative) NK2 (colonic motility)
[4] = iv, read-out: ED50 iv after 1 min (cumulative) NK2 (late hypotension)
[5] = oral, from AUC of antagonistic effect 1 - 180 min after administration, read-out: ED50 AUC1-180 min oral NK2 (broncho-constriction)
[6] = oral, from AUC of antagonistic effect 1 - 180 min after administration, read-out: ED50 AUC1-180 min oral NK2 (colonic motility)
[7] = oral, from AUC of antagonistic effect 1 - 180 min after administration, read-out: ED50 AUC1-180 min oral NK2 (late hypotension)

Row | ED50 (NK2 receptors; [2]) [µmol/kg] | ED50 (NK2 receptors; [3]) [µmol/kg] | ED50 (NK2 receptors; [4]) [µmol/kg] | ED50 (NK2 receptors; [5]) [µmol/kg] | ED50 (NK2 receptors; [6]) [µmol/kg] | ED50 (NK2 receptors; [7]) [µmol/kg] | oral activity as NK2 receptor antagonist (NK2 receptors) | EC50 (NK1 receptors) [nM] | Kb [1] [nM] | Ki (human NK1 receptors) [nM] | Structure (SMILES)
1 | 0.321 | 0.027 | 0.643 | 3.1 | 5.5 | 3.1 | active orally | 0.398 | 10 | 3.98 | CN(C[C@@H](CCN1CCN([C@@H](c2ccco2)[C@H](O)CO)CC1)c1ccc(Cl)c(Cl)c1)C(=O)c1cc(C#N)cc2ccccc12 [Compound 1, 3-cyano-N-[(2S)-2-(3,4-dichlorophenyl)-4-{4-[(1R,2S)-1-(2-furyl)-2,3-dihydroxypropyl]piperazin-1-yl}butyl]-N-methyl-1-naphthamide]
2 | < 0.01 | 0.085 | 0.106 | 11.7 | 6 | 14.8 | active orally | 0.316 | – | 3.16 | CN(C[C@@H](CCN1CCN([C@@H](c2ccco2)[C@H](O)[C@@H](O)[C@H](O)CO)CC1)c1ccc(Cl)c(Cl)c1)C(=O)c1cc(C#N)cc2ccccc12 [Compound 2, 3-cyano-N-[(2S)-2-(3,4-dichlorophenyl)-4-{4-[(1R,2S,3R,4R)-1-(2-furyl)-2,3,4,5-tetrahydroxypentyl]piperazin-1-yl}butyl]-N-methyl-1-naphthamide]
3 | 0.595 | 0.05 | 0.282 | – | – | – | – | 0.398 | – | 5.01 | CN(C[C@@H](CCN1CCN(C(CO)(CO)c2ccco2)CC1)c1ccc(Cl)c(Cl)c1)C(=O)c1cc(C#N)cc2ccccc12 [Compound 6, 3-cyano-N-[(2S)-2-(3,4-dichlorophenyl)-4-{4-[1-(2-furyl)-2-hydroxy-1-(hydroxymethyl)ethyl]piperazin-1-yl}butyl]-N-methyl-1-naphthamide]
4 | 0.13 | 0.132 | 0.145 | – | – | – | – | 1.26 | – | 7.94 | CN(C[C@@H](CCN1CCN([C@@H](c2ccco2)[C@H]2COC(=O)O2)CC1)c1ccc(Cl)c(Cl)c1)C(=O)c1cc(C#N)cc2ccccc12 [Compound 11, 3-cya no-N-[(2S)-2-(3,4-dichlorophenyl)-4-(4-{(R)-2-furyl[(4S)-2-oxo-1,3-dioxolan-4-yl]methyl}piperazin-1-yl)butyl]-N-methyl-1-naphthamide]
